According to ChEMBL document CHEMBL1136685, “Structure-activity relationship of cyclic peptide penta-c[Asp-His(6)-DPhe(7)-Arg(8)-Trp(9)-Lys]-NH(2) at the human melanocortin-1 and -4 receptors: His(6) substitution” (Bioorg Med Chem Lett, 2003):

Experiments:
Format in all cases: functional
Melanocortin receptor 4 = Melanocortin receptor 4 (Homo sapiens, UniProt P32245); test: Agonist activity at human melanocortin receptor (hMC4R).
[1] = target: T1, Melanocyte-stimulating hormone receptor (Homo sapiens, UniProt Q01726); test: Agonist activity at human melanocortin receptor (hMC1R).
Target sequence in this assay (Q01726 whole entry): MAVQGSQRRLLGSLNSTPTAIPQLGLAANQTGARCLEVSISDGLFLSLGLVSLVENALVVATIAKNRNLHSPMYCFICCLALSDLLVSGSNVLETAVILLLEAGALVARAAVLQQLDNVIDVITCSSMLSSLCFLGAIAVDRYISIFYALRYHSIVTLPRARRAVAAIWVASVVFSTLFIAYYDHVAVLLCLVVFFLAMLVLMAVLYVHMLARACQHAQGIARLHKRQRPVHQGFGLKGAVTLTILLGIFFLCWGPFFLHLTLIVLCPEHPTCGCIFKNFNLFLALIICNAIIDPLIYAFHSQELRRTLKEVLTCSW

[2] = target: T1, Melanocyte-stimulating hormone receptor; test: Agonistic activity against human melanocortin receptor (hMC1R) for cAMP accumulation at a concentration of 50 uM
Target sequence in this assay (Q01726 whole entry, looked up): as the sequence (Q01726 whole entry) above

Sequence of Melanocortin receptor 4 (P32245 whole entry): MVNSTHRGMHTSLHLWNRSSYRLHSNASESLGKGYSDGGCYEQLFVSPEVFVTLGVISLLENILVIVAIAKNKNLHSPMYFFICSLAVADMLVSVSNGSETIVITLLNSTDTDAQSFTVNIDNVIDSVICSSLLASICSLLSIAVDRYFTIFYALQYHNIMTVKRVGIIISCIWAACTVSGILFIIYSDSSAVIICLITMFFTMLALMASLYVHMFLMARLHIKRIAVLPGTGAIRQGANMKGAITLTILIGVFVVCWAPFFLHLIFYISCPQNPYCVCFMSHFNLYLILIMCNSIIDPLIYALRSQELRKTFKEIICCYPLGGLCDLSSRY

## CCCCC(=O)N[C@H]1CC(=O)NCCCC[C@@H](C(N)=O)NC(=O)[C@H](Cc2c[nH]c3ccccc23)NC(=O)[C@H](CCCN=C(N)N)NC(=O)[C@@H](Cc2ccccc2)NC(=O)[C@@]2(CCc3ccccc3C2)NC1=O (mixture of isomers)
Melanocortin receptor 4
  EC50: 0.065 µM
[1]
  EC50: 0.9 µM

## CCCCC(=O)N[C@@H]1CC(=O)NCCCC[C@@H](C(N)=O)NC(=O)[C@H](Cc2c[nH]c3ccccc23)NC(=O)[C@@H](CCCN=C(N)N)NC(=O)[C@H](Cc2ccccc2)NC(=O)C2(CCc3c(Cl)cccc3C2)NC1=O (mixture of isomers)
[2]
  cAMP accumulation: 30%

## CCCCC(=O)N[C@H]1CC(=O)NCCCC[C@@H](C(N)=O)NC(=O)[C@H](Cc2c[nH]c3ccccc23)NC(=O)[C@H](CCCNC(=N)N)NC(=O)[C@@H](Cc2ccccc2)NC(=O)C2(Cc3ccccc3C2)NC1=O
Melanocortin receptor 4
  EC50: 0.065 µM
[1]
  EC50: 0.37 µM

## CCCCC(=O)N[C@@H]1CC(=O)NCCCC[C@@H](C(N)=O)NC(=O)[C@H](Cc2c[nH]c3ccccc23)NC(=O)[C@@H](CCCN=C(N)N)NC(=O)[C@H](Cc2ccccc2)NC(=O)C2(CCc3c(Br)cccc3C2)NC1=O (single isomer, unassigned; form 1)
[2]
  cAMP accumulation: 80%

## CCCCC(=O)N[C@H]1CC(=O)NCCCC[C@@H](C(N)=O)NC(=O)[C@H](Cc2c[nH]c3ccccc23)NC(=O)[C@H](CCCN=C(N)N)NC(=O)[C@@H](Cc2ccccc2)NC(=O)[C@@H]2c3ccccc3CN2C1=O (single isomer, unassigned; form 2)
Melanocortin receptor 4
  EC50: 0.002 µM
[1]
  EC50: 0.003 µM

## CCCCC(=O)N[C@H]1CC(=O)NCCCC[C@@H](C(N)=O)NC(=O)[C@H](Cc2c[nH]c3ccccc23)NC(=O)[C@H](CCCN=C(N)N)NC(=O)[C@@H](Cc2ccccc2)NC(=O)C2(CCc3c(Cl)cccc3C2)NC1=O (mixture of isomers)
Melanocortin receptor 4
  EC50: 0.009 µM

## CCCCC(=O)N[C@H]1CC(=O)NCCCC[C@@H](C(N)=O)NC(=O)[C@H](Cc2c[nH]c3ccccc23)NC(=O)[C@H](CCCN=C(N)N)NC(=O)[C@@H](Cc2ccccc2)NC(=O)C2(CCc3c(cccc3N(C)C)C2)NC1=O (mixture of isomers)
Melanocortin receptor 4
  EC50: 0.045 µM
[1]
  EC50: 0.48 µM

## CCCCC(=O)N[C@H]1CC(=O)NCCCC[C@@H](C(N)=O)NC(=O)[C@H](Cc2c[nH]c3ccccc23)NC(=O)[C@H](CCCN=C(N)N)NC(=O)[C@@H](Cc2ccccc2)NC(=O)C2(CCc3c(Br)cccc3C2)NC1=O (single isomer, unassigned; form 1)
Melanocortin receptor 4
  EC50: 0.015 µM

## CCCC[C@H](NC(C)=O)C(=O)N[C@H]1CC(=O)NCCCC[C@@H](C(N)=O)NC(=O)[C@H](Cc2c[nH]c3ccccc23)NC(=O)[C@H](CCCN=C(N)N)NC(=O)[C@@H](Cc2ccccc2)NC(=O)[C@H](CCC(N)=O)NC1=O
Melanocortin receptor 4
  EC50: 0.0003 µM
[1]
  EC50: 0.0003 µM

## CCCCC(=O)N[C@H]1CC(=O)NCCCC[C@@H](C(N)=O)NC(=O)[C@H](Cc2c[nH]c3ccccc23)NC(=O)[C@H](CCCN=C(N)N)NC(=O)[C@@H](Cc2ccccc2)NC(=O)C2(CCc3cc(Cl)ccc3C2)NC1=O (mixture of isomers)
Melanocortin receptor 4
  EC50: 0.033 µM

## CCCCC(=O)N[C@H]1CC(=O)NCCCC[C@@H](C(N)=O)NC(=O)[C@H](Cc2c[nH]c3ccccc23)NC(=O)[C@H](CCCN=C(N)N)NC(=O)[C@@H](Cc2ccccc2)NC(=O)C2(CCc3c(Br)cccc3C2)NC1=O (single isomer, unassigned; form 2)
Melanocortin receptor 4
  EC50: 0.041 µM

## CCCCC(=O)N[C@@H]1CC(=O)NCCCC[C@@H](C(N)=O)NC(=O)[C@H](Cc2c[nH]c3ccccc23)NC(=O)[C@@H](CCCN=C(N)N)NC(=O)[C@H](Cc2ccccc2)NC(=O)C2(CCc3cc(Br)ccc3C2)NC1=O (mixture of isomers)
[2]
  cAMP accumulation: 60%

## CCCCC(=O)N[C@H]1CC(=O)NCCCC[C@@H](C(N)=O)NC(=O)[C@H](Cc2c[nH]c3ccccc23)NC(=O)[C@H](CCCN=C(N)N)NC(=O)[C@@H](Cc2ccccc2)NC(=O)[C@@H]2Cc3ccccc3CN2C1=O
Melanocortin receptor 4
  EC50: 0.003 µM
[1]
  EC50: 0.005 µM

## CCCCC(=O)N[C@H]1CC(=O)NCCCC[C@@H](C(N)=O)NC(=O)[C@H](Cc2c[nH]c3ccccc23)NC(=O)[C@H](CCCN=C(N)N)NC(=O)[C@@H](Cc2ccccc2)NC(=O)[C@@]2(CCc3c(CC)cccc3C2)NC1=O
Melanocortin receptor 4
  EC50: 0.008 µM
[1]
  EC50: 0.42 µM

## CCCCC(=O)N[C@H]1CC(=O)NCCCC[C@@H](C(N)=O)NC(=O)[C@H](Cc2c[nH]c3ccccc23)NC(=O)[C@H](CCCN=C(N)N)NC(=O)[C@@H](Cc2ccccc2)NC(=O)C2(CCc3cc(Br)ccc3C2)NC1=O (mixture of isomers)
Melanocortin receptor 4
  EC50: 0.037 µM

## CCCCC(=O)N[C@@H]1CC(=O)NCCCC[C@@H](C(N)=O)NC(=O)[C@H](Cc2c[nH]c3ccccc23)NC(=O)[C@@H](CCCN=C(N)N)NC(=O)[C@H](Cc2ccccc2)NC(=O)C2(CCc3cccc(Br)c3C2)NC1=O (mixture of isomers)
[2]
  cAMP accumulation: 60%

## CCCCC(=O)N[C@H]1CC(=O)NCCCC[C@@H](C(N)=O)NC(=O)[C@H](Cc2c[nH]c3ccccc23)NC(=O)[C@H](CCCNC(=N)N)NC(=O)[C@@H](Cc2ccccc2)NC(=O)C2(CCc3c(cccc3OCC)C2)NC1=O (mixture of isomers)
Melanocortin receptor 4
  EC50: 0.035 µM
[1]
  EC50: 1.27 µM

## CCCCC(=O)N[C@@H]1CC(=O)NCCCC[C@@H](C(N)=O)NC(=O)[C@H](Cc2c[nH]c3ccccc23)NC(=O)[C@@H](CCCN=C(N)N)NC(=O)[C@H](Cc2ccccc2)NC(=O)C2(CCc3cc(Cl)ccc3C2)NC1=O (mixture of isomers)
[2]
  cAMP accumulation: 50%

## CCCCC(=O)N[C@H]1CC(=O)NCCCC[C@@H](C(N)=O)NC(=O)[C@H](Cc2c[nH]c3ccccc23)NC(=O)[C@H](CCCNC(=N)N)NC(=O)[C@@H](Cc2ccccc2)NC(=O)C2(CCc3ccc(Br)cc3C2)NC1=O (mixture of isomers)
Melanocortin receptor 4
  EC50: 0.01 µM
[1]
  EC50: 0.14 µM

## CCCCC(=O)N[C@H]1CC(=O)NCCCC[C@@H](C(N)=O)NC(=O)[C@H](Cc2c[nH]c3ccccc23)NC(=O)[C@H](CCCN=C(N)N)NC(=O)[C@@H](Cc2ccccc2)NC(=O)[C@@]2(CCc3c(cccc3OC)C2)NC1=O (mixture of isomers)
Melanocortin receptor 4
  EC50: 0.005 µM
[1]
  EC50: 0.735 µM

## CCCCC(=O)N[C@H]1CC(=O)NCCCC[C@@H](C(N)=O)NC(=O)[C@H](Cc2c[nH]c3ccccc23)NC(=O)[C@H](CCCNC(=N)N)NC(=O)[C@@H](Cc2ccccc2)NC(=O)C2(CCc3c(cccc3C(C)C)C2)NC1=O (mixture of isomers)
Melanocortin receptor 4
  EC50: 0.007 µM
[1]
  EC50: 0.48 µM

## CCCCC(=O)N[C@H]1CC(=O)NCCCC[C@@H](C(N)=O)NC(=O)[C@H](Cc2c[nH]c3ccccc23)NC(=O)[C@H](CCCN=C(N)N)NC(=O)[C@@H](Cc2ccccc2)NC(=O)C2(CCc3c(cccc3OC(C)C)C2)NC1=O (mixture of isomers)
Melanocortin receptor 4
  EC50: 0.007 µM
[1]
  EC50: 1.33 µM

## CCCCC(=O)N[C@H]1CC(=O)NCCCC[C@@H](C(N)=O)NC(=O)[C@H](Cc2c[nH]c3ccccc23)NC(=O)[C@H](CCCN=C(N)N)NC(=O)[C@@H](Cc2ccccc2)NC(=O)C2(CCc3cccc(Br)c3C2)NC1=O (mixture of isomers)
Melanocortin receptor 4
  EC50: 0.176 µM

## CCCCC(=O)N[C@H]1CC(=O)NCCCC[C@@H](C(N)=O)NC(=O)[C@H](Cc2c[nH]c3ccccc23)NC(=O)[C@H](CCCN=C(N)N)NC(=O)[C@@H](Cc2ccccc2)NC(=O)[C@H](Cc2ccc(C(F)(F)F)cc2)NC1=O
Melanocortin receptor 4
  EC50: 0.002 µM
[1]
  EC50: 0.012 µM

## CCCCC(=O)N[C@@H]1CC(=O)NCCCC[C@@H](C(N)=O)NC(=O)[C@H](Cc2c[nH]c3ccccc23)NC(=O)[C@@H](CCCN=C(N)N)NC(=O)[C@H](Cc2ccccc2)NC(=O)C2(CCc3c(Br)cccc3C2)NC1=O (single isomer, unassigned; form 2)
[2]
  cAMP accumulation: 70%
